The text below walks through data of ChEMBL document CHEMBL1152141, “Pyrrolo-pyrimidones: a novel class of MK2 inhibitors with potent cellular activity” (Bioorg Med Chem Lett, 2008).

One data set concerns PBMC. In words: Inhibition of LPS-stimulated TNFalpha release from human PBMC after 3 hrs.
Data set [1] has as its target Tyrosine-protein kinase BTK (Homo sapiens, UniProt Q06187). Kind of data set: Inhibition of Btk.
Data set [2] has as its target Heat shock protein beta-1 (Homo sapiens) (UniProt P04792). Kind of data set: Inhibition of LPS-stimulated hsp27 phosphorylation in 1 hr pretreated human THP1 cells by Western blot. It counts as cell-based. As to conditions: THP-1.
Data set [3] deals with Glycogen synthase kinase-3 beta (Homo sapiens, UniProt P49841). Kind of data set: Inhibition of GSK3b.
For data set [4], the target named is Mitogen-activated protein kinase 9 (Homo sapiens, UniProt P45984). In words: Inhibition of JNK2.
In data set [5] the target is Vascular endothelial growth factor receptor 2 (Homo sapiens, UniProt P35968). Kind of data set: Inhibition of KDR.
Data set [6] addresses Insulin-like growth factor 1 receptor (Homo sapiens, UniProt P08069). In words: Inhibition of IGF1R.
The target in data set [7] is Cyclin-dependent kinase 2 (Homo sapiens, UniProt P24941). Kind of data set: Inhibition of CDK2.
Data set [8] has as its target Receptor tyrosine-protein kinase erbB-2 (Homo sapiens, UniProt P04626). Kind of data set: Inhibition of HER2.
Data set [9] addresses Tyrosine-protein kinase JAK2 (Homo sapiens, UniProt O60674). In words: Inhibition of JAK2.
The next data set deals with Insulin receptor (Homo sapiens, UniProt P06213). In words: Inhibition of Ins1R.
The nature of data set [10]: Inhibition of PKA.
The target of data set [11] is Fibroblast growth factor receptor 4 (Homo sapiens, UniProt P22455). In words: Inhibition of FGFR4.
Data set [12] has as its target Tyrosine-protein kinase SYK (Homo sapiens, UniProt P43405).
Data set [13] has as its target MAP kinase-activated protein kinase 5 (Homo sapiens, UniProt Q8IW41). In words: Inhibition of MK5.
Data set [14] deals with Mitogen-activated protein kinase 8 (Homo sapiens, UniProt P45983). Kind of data set: Inhibition of JNK1.
The target in data set [15] is Mitogen-activated protein kinase 1 (Homo sapiens, UniProt P28482). Kind of data set: Inhibition of ERK2.
The target in another data set is Aurora kinase A (Homo sapiens, UniProt O14965). Kind of data set: Inhibition of Aurora A.
The target in data set [16] is Tyrosine-protein kinase JAK3 (Homo sapiens, UniProt P52333). In words: Inhibition of JAK3.
The target of data set [17] is ALK tyrosine kinase receptor (Homo sapiens, UniProt Q9UM73). Kind of data set: Inhibition of Alk.
Data set [18] has as its target RAC-alpha serine/threonine-protein kinase (Homo sapiens, UniProt P31749). Kind of data set: Inhibition of PKB.
Data set [19] concerns the target MAP kinase-activated protein kinase 2 (Homo sapiens, UniProt P49137).
The next data set addresses Ephrin type-A receptor 4 (Homo sapiens, UniProt P54764). Kind of data set: Inhibition of EphA4.
Data set [20] addresses Hepatocyte growth factor receptor (Homo sapiens, UniProt P08581). In words: Inhibition of c-Met.
For the next data set, the target named is MAP kinase p38 (Homo sapiens, UniProt O15264+Q15759+Q16539+P53778). In words: Inhibition of human p38. It is filed as protein assay.
Data set [21] deals with Mast/stem cell growth factor receptor Kit (Homo sapiens, UniProt P10721). In words: Inhibition of c-Kit.
A short description of data set [22]: Thermodynamic solubility at pH 6.8. It is filed as physicochemical. Particulars: buffer.
Another data set deals with Ephrin type-B receptor 4 (Homo sapiens, UniProt P54760). Kind of data set: Inhibition of EphB4.
Data set [23] has as its target Epidermal growth factor receptor (Homo sapiens, UniProt P00533).

≈ marks a conversion by molar mass, not a printed value. A value given as a limit tells only on which side of the number the result lay.

Receptor tyrosine-protein kinase erbB-2, sequence (P04626 whole entry): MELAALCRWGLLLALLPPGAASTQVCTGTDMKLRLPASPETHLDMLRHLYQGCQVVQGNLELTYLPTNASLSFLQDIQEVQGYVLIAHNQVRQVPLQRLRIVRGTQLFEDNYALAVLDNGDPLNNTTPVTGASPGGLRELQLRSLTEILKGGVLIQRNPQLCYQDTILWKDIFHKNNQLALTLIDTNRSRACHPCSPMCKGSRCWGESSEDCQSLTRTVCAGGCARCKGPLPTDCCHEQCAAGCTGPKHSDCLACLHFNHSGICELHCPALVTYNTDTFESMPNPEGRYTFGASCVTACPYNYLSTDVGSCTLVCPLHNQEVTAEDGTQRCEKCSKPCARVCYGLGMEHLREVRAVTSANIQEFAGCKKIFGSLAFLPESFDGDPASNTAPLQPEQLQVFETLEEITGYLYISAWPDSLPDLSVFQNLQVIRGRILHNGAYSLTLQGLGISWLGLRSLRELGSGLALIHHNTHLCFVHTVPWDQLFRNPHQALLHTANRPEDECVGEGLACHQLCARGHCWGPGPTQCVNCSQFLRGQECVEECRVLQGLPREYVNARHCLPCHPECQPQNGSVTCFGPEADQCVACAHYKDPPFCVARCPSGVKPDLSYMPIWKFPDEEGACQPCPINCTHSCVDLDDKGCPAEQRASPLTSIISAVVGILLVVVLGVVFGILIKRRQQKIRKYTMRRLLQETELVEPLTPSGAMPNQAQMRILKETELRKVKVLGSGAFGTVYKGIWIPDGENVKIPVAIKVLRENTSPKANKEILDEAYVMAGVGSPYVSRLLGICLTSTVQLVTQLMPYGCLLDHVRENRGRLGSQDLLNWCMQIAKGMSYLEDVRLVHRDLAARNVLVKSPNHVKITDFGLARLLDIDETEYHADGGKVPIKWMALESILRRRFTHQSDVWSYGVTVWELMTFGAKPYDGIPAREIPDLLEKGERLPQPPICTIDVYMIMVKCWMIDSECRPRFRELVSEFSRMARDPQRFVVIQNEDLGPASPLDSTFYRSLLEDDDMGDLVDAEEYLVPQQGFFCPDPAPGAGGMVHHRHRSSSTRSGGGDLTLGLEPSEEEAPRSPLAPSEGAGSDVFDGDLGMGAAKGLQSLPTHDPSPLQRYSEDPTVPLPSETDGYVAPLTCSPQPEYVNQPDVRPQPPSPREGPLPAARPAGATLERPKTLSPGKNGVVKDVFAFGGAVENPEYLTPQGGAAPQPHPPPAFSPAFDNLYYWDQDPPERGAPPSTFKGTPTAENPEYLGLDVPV
Tyrosine-protein kinase JAK3, sequence (P52333 whole entry): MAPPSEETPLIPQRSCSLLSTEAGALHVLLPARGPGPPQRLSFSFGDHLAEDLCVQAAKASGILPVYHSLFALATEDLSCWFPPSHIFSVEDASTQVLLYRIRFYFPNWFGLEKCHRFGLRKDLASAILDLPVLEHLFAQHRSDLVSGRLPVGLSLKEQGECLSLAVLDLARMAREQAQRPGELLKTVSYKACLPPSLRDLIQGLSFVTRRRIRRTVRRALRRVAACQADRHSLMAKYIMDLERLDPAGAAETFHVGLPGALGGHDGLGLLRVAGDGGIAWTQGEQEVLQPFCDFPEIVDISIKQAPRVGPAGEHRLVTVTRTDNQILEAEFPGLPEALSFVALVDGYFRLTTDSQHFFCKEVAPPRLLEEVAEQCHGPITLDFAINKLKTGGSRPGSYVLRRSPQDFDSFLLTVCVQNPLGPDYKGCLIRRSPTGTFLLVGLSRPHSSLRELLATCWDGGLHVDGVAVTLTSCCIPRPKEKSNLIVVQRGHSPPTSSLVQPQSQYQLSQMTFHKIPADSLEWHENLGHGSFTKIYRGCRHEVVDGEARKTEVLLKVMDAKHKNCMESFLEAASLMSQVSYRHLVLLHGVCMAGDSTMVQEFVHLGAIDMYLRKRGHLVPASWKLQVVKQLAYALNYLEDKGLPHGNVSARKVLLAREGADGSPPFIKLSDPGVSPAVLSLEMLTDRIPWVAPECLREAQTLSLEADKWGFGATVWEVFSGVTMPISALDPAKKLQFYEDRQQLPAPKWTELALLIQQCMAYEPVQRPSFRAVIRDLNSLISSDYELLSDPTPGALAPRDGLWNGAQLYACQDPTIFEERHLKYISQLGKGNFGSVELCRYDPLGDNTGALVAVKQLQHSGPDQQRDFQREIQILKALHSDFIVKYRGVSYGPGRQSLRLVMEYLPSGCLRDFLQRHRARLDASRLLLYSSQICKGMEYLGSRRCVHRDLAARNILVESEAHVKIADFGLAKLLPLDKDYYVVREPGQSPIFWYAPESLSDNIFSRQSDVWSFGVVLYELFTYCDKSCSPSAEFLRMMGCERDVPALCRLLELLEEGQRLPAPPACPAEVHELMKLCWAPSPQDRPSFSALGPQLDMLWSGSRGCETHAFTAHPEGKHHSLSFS
Mast/stem cell growth factor receptor Kit, sequence (P10721 whole entry): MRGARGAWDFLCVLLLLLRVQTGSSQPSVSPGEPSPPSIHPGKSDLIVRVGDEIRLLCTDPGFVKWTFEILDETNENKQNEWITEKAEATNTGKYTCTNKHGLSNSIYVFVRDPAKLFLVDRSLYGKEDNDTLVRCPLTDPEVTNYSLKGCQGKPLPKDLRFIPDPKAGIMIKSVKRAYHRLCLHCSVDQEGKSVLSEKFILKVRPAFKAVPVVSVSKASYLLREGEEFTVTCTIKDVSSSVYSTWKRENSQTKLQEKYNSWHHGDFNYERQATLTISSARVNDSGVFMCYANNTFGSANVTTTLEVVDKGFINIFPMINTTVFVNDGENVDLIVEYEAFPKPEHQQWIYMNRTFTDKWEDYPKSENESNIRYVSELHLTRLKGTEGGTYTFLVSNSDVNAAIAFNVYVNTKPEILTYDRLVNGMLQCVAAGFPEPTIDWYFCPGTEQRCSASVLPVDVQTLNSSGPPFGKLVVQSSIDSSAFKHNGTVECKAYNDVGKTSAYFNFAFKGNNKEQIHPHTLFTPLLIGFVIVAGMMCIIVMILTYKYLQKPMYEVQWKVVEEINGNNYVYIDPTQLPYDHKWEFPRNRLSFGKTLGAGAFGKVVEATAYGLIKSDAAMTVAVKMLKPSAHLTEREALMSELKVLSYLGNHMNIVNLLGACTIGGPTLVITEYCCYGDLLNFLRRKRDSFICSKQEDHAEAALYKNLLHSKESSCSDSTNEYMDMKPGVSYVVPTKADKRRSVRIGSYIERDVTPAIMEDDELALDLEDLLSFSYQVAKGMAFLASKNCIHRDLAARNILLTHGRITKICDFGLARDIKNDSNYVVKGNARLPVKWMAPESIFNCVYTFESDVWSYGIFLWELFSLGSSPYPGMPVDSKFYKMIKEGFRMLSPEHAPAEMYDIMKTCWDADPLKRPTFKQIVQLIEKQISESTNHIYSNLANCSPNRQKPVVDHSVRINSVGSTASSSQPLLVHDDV
Mitogen-activated protein kinase 8, sequence (P45983 whole entry): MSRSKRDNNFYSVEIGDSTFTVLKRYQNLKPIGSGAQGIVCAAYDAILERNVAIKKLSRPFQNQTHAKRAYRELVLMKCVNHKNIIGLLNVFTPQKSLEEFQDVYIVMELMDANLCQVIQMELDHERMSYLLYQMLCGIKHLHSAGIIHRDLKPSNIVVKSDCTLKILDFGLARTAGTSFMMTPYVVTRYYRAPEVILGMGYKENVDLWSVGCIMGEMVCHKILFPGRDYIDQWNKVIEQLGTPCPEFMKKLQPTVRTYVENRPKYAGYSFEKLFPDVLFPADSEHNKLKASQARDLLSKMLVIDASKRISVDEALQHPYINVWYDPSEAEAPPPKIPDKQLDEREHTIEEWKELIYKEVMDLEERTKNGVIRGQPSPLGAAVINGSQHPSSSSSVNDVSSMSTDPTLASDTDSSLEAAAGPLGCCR
Fibroblast growth factor receptor 4, sequence (P22455 whole entry): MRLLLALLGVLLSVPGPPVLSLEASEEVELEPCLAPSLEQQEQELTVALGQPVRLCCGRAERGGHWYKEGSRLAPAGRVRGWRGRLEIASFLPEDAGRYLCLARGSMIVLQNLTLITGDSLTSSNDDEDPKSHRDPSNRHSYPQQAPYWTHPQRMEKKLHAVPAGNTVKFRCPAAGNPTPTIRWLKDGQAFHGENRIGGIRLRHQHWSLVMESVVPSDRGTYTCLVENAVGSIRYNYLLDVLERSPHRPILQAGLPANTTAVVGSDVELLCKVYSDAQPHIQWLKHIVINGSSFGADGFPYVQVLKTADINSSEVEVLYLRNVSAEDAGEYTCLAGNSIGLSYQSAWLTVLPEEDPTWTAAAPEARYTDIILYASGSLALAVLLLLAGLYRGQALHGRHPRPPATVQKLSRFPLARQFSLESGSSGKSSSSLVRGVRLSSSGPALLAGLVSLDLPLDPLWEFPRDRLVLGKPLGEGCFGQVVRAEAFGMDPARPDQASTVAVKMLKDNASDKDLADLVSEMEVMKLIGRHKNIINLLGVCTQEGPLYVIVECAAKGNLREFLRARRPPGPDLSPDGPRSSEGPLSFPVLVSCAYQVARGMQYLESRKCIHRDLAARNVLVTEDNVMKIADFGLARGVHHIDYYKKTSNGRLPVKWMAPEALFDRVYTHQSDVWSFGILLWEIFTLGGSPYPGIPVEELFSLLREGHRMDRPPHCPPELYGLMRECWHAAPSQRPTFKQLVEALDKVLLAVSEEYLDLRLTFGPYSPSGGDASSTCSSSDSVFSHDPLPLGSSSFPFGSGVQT
Glycogen synthase kinase-3 beta, sequence (P49841 whole entry): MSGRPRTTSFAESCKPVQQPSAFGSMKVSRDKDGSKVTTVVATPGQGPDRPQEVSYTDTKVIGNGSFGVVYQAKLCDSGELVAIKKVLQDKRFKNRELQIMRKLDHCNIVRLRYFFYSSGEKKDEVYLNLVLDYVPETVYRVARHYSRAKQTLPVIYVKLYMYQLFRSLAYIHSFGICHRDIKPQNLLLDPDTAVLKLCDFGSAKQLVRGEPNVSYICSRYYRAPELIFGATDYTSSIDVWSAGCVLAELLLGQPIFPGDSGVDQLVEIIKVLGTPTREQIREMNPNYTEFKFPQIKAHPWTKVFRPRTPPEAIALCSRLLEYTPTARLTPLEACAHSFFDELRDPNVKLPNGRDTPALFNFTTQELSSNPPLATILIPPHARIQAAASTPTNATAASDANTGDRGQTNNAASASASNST

`CCN(CC)Cc1ccc(/C=C/c2cc(-c3cc4c(=O)[nH]cnc4[nH]3)ccn2)cc1` showed an IC50 in the data set with PBMC of 380 nM.

The compound `O=C(Nc1cc(-c2cc3c(=O)[nH]cnc3[nH]2)ccn1)c1ccc(C2CCCC2)cc1` registered an IC50 in the data set with PBMC of 10000 nM.

Consider `O=c1[nH]c(Cc2ccccc2)nc2[nH]c(-c3ccnc(/C=C/c4ccccc4)c3)cc12`, for which the 50% inhibitory concentration (IC50) in the data set on PBMC was > 10000 nM.

As to `COc1ccc(-c2cc(-c3cc4c(=O)[nH]cnc4[nH]3)ccn2)cc1`, the half-inhibitory concentration (IC50) in the data set with PBMC is > 10000 nM.

`Nc1nc2[nH]c(-c3ccnc(/C=C/c4ccccc4)c3)cc2c(=O)[nH]1` gave an IC50 with PBMC of 1500 nM.

In the data set with PBMC, `Cc1nc2[nH]c(-c3ccnc(/C=C/c4ccccc4)c3)cc2c(=O)[nH]1` showed an IC50 of 1100 nM.

Take `O=c1[nH]cnc2[nH]c(-c3ccnc(/C=C/c4ccc(CN5CCOCC5)cc4)c3)cc12`: the IC50 in data set [1] is > 10000 nM; in data set [3], 300 nM; in data set [4], 950 nM; in [5], 100 nM; in [6], > 10000 nM; in [7], > 10000 nM. For the same compound, the IC50 in data set [8] was > 10000 nM; in [9], 1300 nM; on Insulin receptor, > 10000 nM; in [10] it was 6700 nM; in data set [11] it was > 10000 nM; in data set [12], 6200 nM. The 50% inhibitory concentration (IC50) in data set [13] is 24 nM; in data set [14], 4000 nM; in [15], 1100 nM; against Aurora kinase A, 93 nM; in data set [16] it was 310 nM; in data set [17], > 10000 nM. Besides, the half-maximal inhibitory concentration (IC50) is > 10000 nM in data set [18]; 51 nM in data set [19]; > 10000 nM against Ephrin type-A receptor 4; 85 nM in [20]; > 10000 nM on MAP kinase p38; 110 nM with PBMC. The IC50 in data set [21] turned out to be 5200 nM; on Ephrin type-B receptor 4, 1700 nM. In data set [2], the Activity entry is “Dose-dependent effect”. The thermodynamic solubility in data set [22] was found to be 41 µg/mL (≈ 99.2 µM).

As for `O=c1[nH]cnc2[nH]c(-c3ccnc(/C=C/c4ccccc4)c3)cc12`, half-maximal inhibition in the data set on PBMC (IC50) required 2300 nM.

`O=c1[nH]cnc2[nH]c(-c3ccnc(/C=C/c4ccc(F)cc4)c3)cc12` had a half-inhibitory concentration (IC50) with PBMC of 350 nM. For the same compound, in [22], the solubility (thermodynamic) is 3 µg/mL (≈ 9.03 µM).

In turn, `O=C(c1ccc(/C=C/c2cc(-c3cc4c(=O)[nH]cnc4[nH]3)ccn2)cc1)N1CCOCC1` displayed a half-maximal inhibitory concentration (IC50) in the data set on PBMC of 150 nM. In data set [22], the solubility (thermodynamic) was found to be 9 µg/mL (≈ 21.1 µM).

With `CN(C)CCOc1ccc(/C=C/c2cc(-c3cc4c(=O)[nH]cnc4[nH]3)ccn2)cc1`, the IC50 in data set [1] was > 10000 nM; in data set [23], 3300 nM; in [3], 530 nM; in data set [4], 240 nM; in data set [5] it was 190 nM; in data set [6], 6400 nM. Besides, the half-inhibitory concentration (IC50) in data set [7] is 8200 nM; in data set [8] it was 9500 nM; in [9], 3600 nM; at Insulin receptor it was 7800 nM; in [10], > 10000 nM; in data set [11] it was 6800 nM. The IC50 in [13] worked out at 28 nM; in data set [14], 960 nM; in [15], 2600 nM; against Aurora kinase A, 280 nM; in data set [16], 1000 nM; in data set [17], 4100 nM. For the same compound, the IC50 in data set [18] is > 10000 nM; in data set [19] it was 82 nM; against Ephrin type-A receptor 4, 5600 nM; in [20], 140 nM; against MAP kinase p38 it was > 10000 nM; in the data set on PBMC, 40 nM. The IC50 in [21] was 6100 nM; against Ephrin type-B receptor 4, 1400 nM. Moreover, in data set [2], the Activity result is “Dose-dependent effect”. Moreover, the thermodynamic solubility in data set [22] turned out to be 410 µg/mL (≈ 1020 µM).

As a reminder, the IC50 is the concentration that gives 50% inhibition. A high value points to weaker potency. As usually defined, the thermodynamic solubility is the concentration in solution at equilibrium with solid.
